Source: ChEMBL document CHEMBL1275501, “Plasmid-mediated quinolone resistance pump QepA2 in an Escherichia coli isolate from France” (2008)
≈ marks a conversion by molar mass, not a printed value.

How the values were obtained:
Escherichia coli [1] = assay: Antimicrobial activity against Escherichia coli BicA expressing blaTEM-1, blaCTX-M-15 and qepA2 gene by disk diffusion method
Escherichia coli [2] = assay: Antimicrobial activity against azide-resistant Escherichia coli J53 harboring pCTX-M carrying blaCTX-M-15 and pQep plasmid carrying qepA2 gene by disk diffusion method; type: functional
Escherichia coli [3] = assay: Antimicrobial activity against Escherichia coli TOP10 harboring pQep plasmid carrying qepA2 gene by disk diffusion method; type: functional
Escherichia coli [4] = assay: Antimicrobial activity against Escherichia coli TOP10 by disk diffusion method; type: functional
Escherichia coli [5] = assay: Antimicrobial activity against azide-resistant Escherichia coli J53 harboring pCTX-M plasmid carrying blaCTX-M-15 gene by disk diffusion method; type: functional
Escherichia coli [6] = assay: Antimicrobial activity against azide-resistant Escherichia coli J53 by disk diffusion method; type: functional
Escherichia coli [7] = assay: Antimicrobial activity against Escherichia coli BicA expressing blaTEM-1, blaCTX-M-15 and qepA2 gene by disk diffusion method in presence of beta-lactamase inhibitor Tazobactam; type: functional
Escherichia coli [8] = assay: Antimicrobial activity against azide-resistant Escherichia coli J53 harboring pCTX-M plasmid carrying blaCTX-M-15 gene by disk diffusion method in presence of beta-lactamase inhibitor Tazobactam; type: functional
Escherichia coli [9] = assay: Antimicrobial activity against azide-resistant Escherichia coli J53 harboring pCTX-M carrying blaCTX-M-15 and pQep plasmid carrying qepA2 gene by disk diffusion method in presence of beta-lactamase inhibitor Tazobactam; type: functional
Escherichia coli [10] = assay: Antimicrobial activity against azide-resistant Escherichia coli J53 by disk diffusion method in presence of beta-lactamase inhibitor Tazobactam; type: functional
Escherichia coli [11] = assay: Antimicrobial activity against Escherichia coli TOP10 harboring pQep plasmid carrying qepA2 gene by disk diffusion method in presence of beta-lactamase inhibitor Tazobactam; type: functional
Escherichia coli [12] = assay: Antimicrobial activity against Escherichia coli TOP10 by disk diffusion method in presence of beta-lactamase inhibitor Tazobactam; type: functional

Row | Molecule | MIC (Escherichia coli [1]) | MIC (Escherichia coli [2]) | MIC (Escherichia coli [3]) | MIC (Escherichia coli [4]) | MIC (Escherichia coli [5]) | MIC (Escherichia coli [6]) | MIC (Escherichia coli [7]) | MIC (Escherichia coli [8]) | MIC (Escherichia coli [9]) | MIC (Escherichia coli [10]) | MIC (Escherichia coli [11]) | MIC (Escherichia coli [12])
1 | COc1c(N2C[C@@H]3CCCN[C@@H]3C2)c(F)cc2c(=O)c(C(=O)O)cn(C3CC3)c12 [MOXIFLOXACIN] | > 32 µg/mL | 0.12 µg/mL (≈ 0.299 µM) | 0.01 µg/mL (≈ 0.0249 µM) | 0.004 µg/mL (≈ 0.00996 µM) |  |  |  |  |  |  |  | 
2 | CCn1cc(C(=O)O)c(=O)c2ccc(C)nc21 [NALIDIXIC ACID] | > 256 µg/mL | 4 µg/mL (≈ 17.2 µM) | 1.5 µg/mL (≈ 6.46 µM) | 1 µg/mL (≈ 4.31 µM) | 4 µg/mL (≈ 17.2 µM) | 4 µg/mL (≈ 17.2 µM) |  |  |  |  |  | 
3 | CCN[C@@H]1C[C@H](N)[C@@H](O[C@H]2OC(CN)=CC[C@H]2N)[C@H](O)[C@H]1O[C@H]1OC[C@](C)(O)[C@H](NC)[C@H]1O [NETILMICIN] | 0.5 µg/mL (≈ 1.05 µM) | 0.12 µg/mL (≈ 0.252 µM) | 0.25 µg/mL (≈ 0.526 µM) | 0.25 µg/mL (≈ 0.526 µM) | 0.12 µg/mL (≈ 0.252 µM) | 0.12 µg/mL (≈ 0.252 µM) |  |  |  |  |  | 
4 | CCn1cc(C(=O)O)c(=O)c2cc(F)c(N3CCNCC3)cc21 [NORFLOXACIN] | > 256 µg/mL | 1 µg/mL (≈ 3.13 µM) | 0.5 µg/mL (≈ 1.57 µM) | 0.03 µg/mL (≈ 0.0939 µM) | 0.06 µg/mL (≈ 0.188 µM) | 0.06 µg/mL (≈ 0.188 µM) |  |  |  |  |  | 
5 | CC1COc2c(N3CCN(C)CC3)c(F)cc3c(=O)c(C(=O)O)cn1c23 (stereo unspecified) [OFLOXACIN] | > 32 µg/mL |  |  |  |  |  |  |  |  |  |  | 
6 | CCn1cc(C(=O)O)c(=O)c2cc(F)c(N3CCN(C)CC3)cc21 [PEFLOXACIN] | > 32 µg/mL | 0.06 µg/mL (≈ 0.18 µM) |  | 0.03 µg/mL (≈ 0.09 µM) | 0.06 µg/mL (≈ 0.18 µM) | 0.06 µg/mL (≈ 0.18 µM) |  |  |  |  |  | 
7 | CCN1CCN(C(=O)N[C@@H](C(=O)N[C@@H]2C(=O)N3[C@@H]2SC(C)(C)[C@@H]3C(=O)O)c2ccccc2)C(=O)C1=O [PIPERACILLIN] | > 256 µg/mL | > 256 µg/mL | > 256 µg/mL | 2 µg/mL (≈ 3.86 µM) | > 256 µg/mL | 2 µg/mL (≈ 3.86 µM) | 4 µg/mL | 2 µg/mL | 2 µg/mL | 1 µg/mL | 2 µg/mL | 1 µg/mL
8 | CO[C@H]1/C=C/O[C@@]2(C)Oc3c(C)c(O)c4c(O)c(c(/C=N/N5CCN(C)CC5)c(O)c4c3C2=O)NC(=O)/C(C)=C\C=C\[C@H](C)[C@H](O)[C@@H](C)[C@@H](O)[C@@H](C)[C@H](OC(C)=O)[C@@H]1C [RIFAMPIN] | 16 µg/mL (≈ 19.4 µM) | 8 µg/mL (≈ 9.72 µM) | 16 µg/mL (≈ 19.4 µM) | 16 µg/mL (≈ 19.4 µM) | 8 µg/mL (≈ 9.72 µM) | 8 µg/mL (≈ 9.72 µM) |  |  |  |  |  | 
9 | Cc1cc(NS(=O)(=O)c2ccc(N)cc2)no1 [SULFAMETHOXAZOLE] | > 256 µg/mL | > 256 µg/mL | > 256 µg/mL | 16 µg/mL (≈ 63.2 µM) | 16 µg/mL (≈ 63.2 µM) | 16 µg/mL (≈ 63.2 µM) |  |  |  |  |  | 
10 | CN(C)[C@@H]1C(O)=C(C(N)=O)C(=O)[C@@]2(O)C(O)=C3C(=O)c4c(O)cccc4[C@@](C)(O)[C@H]3C[C@@H]12 [TETRACYCLINE] | > 256 µg/mL | 2 µg/mL (≈ 4.5 µM) | > 256 µg/mL | 2 µg/mL (≈ 4.5 µM) | 2 µg/mL (≈ 4.5 µM) | 2 µg/mL (≈ 4.5 µM) |  |  |  |  |  | 
11 | CC1(C)S[C@@H]2[C@H](NC(=O)[C@H](C(=O)O)c3ccsc3)C(=O)N2[C@H]1C(=O)O [TICARCILLIN] | > 256 µg/mL | > 256 µg/mL | > 256 µg/mL | 4 µg/mL (≈ 10.4 µM) | > 256 µg/mL | 4 µg/mL (≈ 10.4 µM) |  |  |  |  |  | 
12 | NC[C@H]1O[C@H](O[C@H]2[C@H](O)[C@@H](O[C@H]3O[C@H](CO)[C@@H](O)[C@H](N)[C@H]3O)[C@H](N)C[C@@H]2N)[C@H](N)C[C@@H]1O [TOBRAMYCIN] | 0.5 µg/mL (≈ 1.07 µM) | 0.25 µg/mL (≈ 0.535 µM) | 0.5 µg/mL (≈ 1.07 µM) | 0.5 µg/mL (≈ 1.07 µM) | 0.25 µg/mL (≈ 0.535 µM) | 0.12 µg/mL (≈ 0.257 µM) |  |  |  |  |  | 
13 | COc1cc(Cc2cnc(N)nc2N)cc(OC)c1OC [TRIMETHOPRIM] | > 256 µg/mL | > 256 µg/mL | > 256 µg/mL | 0.12 µg/mL (≈ 0.413 µM) | 0.25 µg/mL (≈ 0.861 µM) | 0.25 µg/mL (≈ 0.861 µM) |  |  |  |  |  | 
14 | GENTAMICIN |  | 0.12 µg/mL | 0.25 µg/mL | 0.25 µg/mL | 0.12 µg/mL | 0.12 µg/mL |  |  |  |  |  | 
